According to patent publication US5616615A, “Enaminone esters” (priority 1995, dated 1997):
Entries after “also recorded” stand apart in the source; their conditions may differ. Like-named read-outs stand apart in the source and are kept apart here.

How the values were obtained:
seizures = test: Anticonvulsant evaluation (ASP phase I / overall); format: in vivo, mice; settings: for phase I evaluations / anticonvulsant activity: mouse, in vivo; for minimal effective dose: Mus musculus, ip, Phase I, read-out: ASP Classification; for activity compared with 12: substituted benzylamines; for activity compared with benzylamine counterpart: 27 vs 16, 28 vs 17, 29 vs 20
Description: The first phase of the ADD Program involved performing tests on male Carworth Farms #1 mice. […] Three tests were performed:
(§1) Maximal electroshock seizures are elicited with a 60-cycle alternating current of 50 mA intensity (5-7 times that necessary to elicit minimal electroshock seizures) delivered via corneal electrodes for 0.2 seconds. A drop of 0.9% saline is instilled in the eye prior to application of the electrodes in order to […].
The animal is observed for 30 minutes.

in vivo = settings: rat, po
Description: (§2) This oral screen is designated as phase VI.

[1] = test system: Maximal electroshock seizures; test: MES maximal electroshock seizure test, mice ip; format: in vivo; settings: for responders at 300 mg/kg / responders at 100 mg/kg / responders at 30 mg/kg: Mus musculus, ip; for responders at 300 mg/kg / responders at 30 mg/kg: read-out: MES, animals protected/tested; for responders at 100 mg/kg: read-out: MES, animals protected/tested (converted)
Description: Three tests were performed:
1. MES--Electroshock Seizure Test
as §1

[2] = test system: Subcutaneous Pentylenetetrazol seizure; test: sc Met subcutaneous pentylenetetrazol (Metrazol) seizure test, mice; format: in vivo; settings: for responders at 300 mg/kg / responders at 100 mg/kg / responders at 30 mg/kg: Mus musculus, sc; for responders at 300 mg/kg / responders at 100 mg/kg: read-out: scMet, animals protected/tested (converted); for responders at 30 mg/kg: read-out: scMet, animals protected/tested; for scMet evaluation: Phase I
Description: 2. sc Met--Subcutaneous Pentylenetetrazol (Metrazol^R) Seizure Test
The animal is observed for 30 minutes. Failure to observe even a threshold seizure (a single episode of clonic spasms of at least 5 seconds duration) is defined as protection and the results are expressed as the number of animals protected/the number of animals tested.

[3] = test system: Maximal electroshock seizures; test: Phase VI oral MES test, rats; format: in vivo; settings: oral; for responders at 50 mg/kg: Rattus norvegicus, read-out: MES, animals protected/tested (converted); for responders at 50 mg/kg / MES, animals protected/tested: 50 mg/kg
Description: as §1, §2

[4] = 0.5 h, 300 mg/kg, 30 min, second trial

COC(=O)C1C(=O)C=C(NN2CCOCC2)CC1C (stereo not drawn) [Compound 34]
phase I evaluations (seizures): neither was active

COC(=O)C1C(=O)C=C(NCc2ccc(F)cc2)CC1C (stereo not drawn) [Compound 21]
TD50 (in vivo): > 230 mg/kg | selectivity ratio (in vivo): 4.7 | Tox, animals toxic/tested (in vivo; 50 mg/kg): 0/4 | responders at 300 mg/kg ([1]; 0.5 h, 300 mg/kg, 30 min): 0% | responders at 300 mg/kg ([1]; 4 h, 300 mg/kg, 4 h): 100% | activity in Phase II evaluation ([1]; substituted benzylamines): significant activity | responders at 300 mg/kg ([2]; 0.5 h, 300 mg/kg, 30 min): 0% | responders at 300 mg/kg ([2]; 4 h, 300 mg/kg, 4 h): 0% | minimal effective dose (seizures): > 100 mg/kg | activity compared with 12 (seizures): only a slight modification in activity | ED50 ([3]; Phase VI, rat): 49.3 mg/kg | responders at 50 mg/kg ([3]; 0.5 h, 0.50 h): 50% | responders at 50 mg/kg ([3]; 0.25 h): 50% | responders at 50 mg/kg ([3]; 1.00 h): 25% | responders at 50 mg/kg ([3]; 2.00 h): 50% | responders at 50 mg/kg ([3]; 4.00 h): 75%

COC(=O)C1C(=O)C=C(Nc2ccc([N+](=O)[O-])cc2)CC1C (stereo not drawn) [Compound 29]
responders at 100 mg/kg ([1]; 0.5 h, 100 mg/kg, 30 min): 0% | responders at 100 mg/kg ([1]; 4 h, 100 mg/kg, 4 h): 0% | responders at 100 mg/kg ([2]; 0.5 h, 100 mg/kg, 30 min, second trial): 0% | responders at 100 mg/kg ([2]; 0.5 h, 100 mg/kg, 30 min): 100% | responders at 100 mg/kg ([2]; 4 h, 100 mg/kg, 4 h): 0% | activity compared with benzylamine counterpart (seizures): activity is enhanced in all cases | minimal effective dose (seizures): < 100 mg/kg

COC(=O)C1C(=O)C=C(Nc2ccc(O)cc2)CC1C (stereo not drawn) [Compound 35]
anticonvulsant activity (seizures): inactive

COC(=O)C1C(=O)C=C(Nc2cc(C)ccc2OC)CC1C (stereo not drawn) [Compound 30]
anticonvulsant activity (seizures): anticonvulsant activity was observed

COC(=O)C1C(=O)C=C(Nc2ccccc2)CC1C (stereo not drawn) [Compound 24]
anticonvulsant activity (seizures): activity was lost; also recorded: inactive

CC1(C)CC(=O)C=C(NCc2ccccc2)C1 [Compound 19]
responders at 100 mg/kg ([1]; 0.5 h, 100 mg/kg, 30 min): 33.3% | responders at 300 mg/kg ([1]; 0.5 h, 300 mg/kg, 30 min): 100% | responders at 100 mg/kg ([1]; 4 h, 100 mg/kg, 4 h): 0% | responders at 300 mg/kg ([1]; 4 h, 300 mg/kg, 4 h): 100% | responders at 100 mg/kg ([2]; 0.5 h, 100 mg/kg, 30 min): 0% | responders at 300 mg/kg ([2]; 0.5 h, 300 mg/kg, 30 min): 0% | responders at 100 mg/kg ([2]; 4 h, 100 mg/kg, 4 h): 0% | responders at 300 mg/kg ([2]; 4 h, 300 mg/kg, 4 h): 0% | minimal effective dose (seizures): < 100 mg/kg | anticonvulsant activity (seizures): potent anticonvulsants

COC(=O)C1C(=O)C=C(NCc2ccc([N+](=O)[O-])cc2)CC1C (stereo not drawn) [Compound 20]
activity compared with 12 (seizures): only a slight modification in activity

COC(=O)C1C(=O)C=C(NN2CCOCC2)CC1C (stereo not drawn) [Compound 33]
phase I evaluations (seizures): neither was active

COC(=O)C1C(=O)C=C(Nc2ccc(C)cc2)CC1C (stereo not drawn) [Compound 28]
responders at 30 mg/kg ([1]; 0.5 h, 30 min): 0% | responders at 300 mg/kg ([1]; 0.5 h, 300 mg/kg, 30 min): 100% | responders at 30 mg/kg ([1]; 4 h, 4 h): 0% | responders at 300 mg/kg ([1]; 4 h, 300 mg/kg, 4 h): 0% | responders at 30 mg/kg ([2]; 0.5 h, 30 min, second trial): 0% | responders at 30 mg/kg ([2]; 0.5 h, 30 min): 100% | responders at 300 mg/kg ([2]; 0.5 h, 300 mg/kg, 30 min): 0% | responders at 30 mg/kg ([2]; 4 h, 4 h): 0% | responders at 300 mg/kg ([2]; 4 h, 300 mg/kg, 4 h): 0% | scMet evaluation [2]: spurious results | activity compared with benzylamine counterpart (seizures): activity is enhanced in all cases | minimal effective dose (seizures): < 100 mg/kg | anticonvulsant activity (seizures): anticonvulsant activity was observed

COC(=O)C1C(=O)C=C(NCCc2ccccc2)CC1(C)C (stereo not drawn) [Compound 14]
responders at 100 mg/kg ([1]; 0.5 h, 100 mg/kg, 30 min): 33.3% | responders at 300 mg/kg ([1]; 0.5 h, 300 mg/kg, 30 min): 100% | responders at 100 mg/kg ([1]; 4 h, 100 mg/kg, 4 h): 0% | responders at 300 mg/kg ([1]; 4 h, 300 mg/kg, 4 h): 0% | responders at 100 mg/kg ([2]; 0.5 h, 100 mg/kg, 30 min): 0% | responders at 300 mg/kg ([2]; 0.5 h, 300 mg/kg, 30 min): 0% | responders at 100 mg/kg ([2]; 4 h, 100 mg/kg, 4 h): 0% | responders at 300 mg/kg ([2]; 4 h, 300 mg/kg, 4 h): 0% | minimal effective dose (seizures): < 100 mg/kg

COC(=O)C1C(=O)C=C(Nc2ccc(C(=O)O)cc2)CC1C (stereo not drawn) [Compound 32]
anticonvulsant activity (seizures): comparable to inactive 18 in the benzylamine series

CC1(C)CC(=O)C=C(Nc2ccc(C(C)(C)C)cc2)C1 [Compound 143]
responders at 100 mg/kg ([1]; 0.5 h, 100 mg/kg, 30 min): 0% | responders at 300 mg/kg ([1]; 0.5 h, 300 mg/kg, 30 min): 0% | responders at 100 mg/kg ([1]; 4 h, 100 mg/kg, 4 h): 0% | responders at 300 mg/kg ([1]; 4 h, 300 mg/kg, 4 h): 0% | responders at 100 mg/kg ([2]; 0.5 h, 100 mg/kg, 30 min): 20% | responders at 300 mg/kg ([2]; 0.5 h, 300 mg/kg, 30 min): 20% | responders at 100 mg/kg ([2]; 4 h, 100 mg/kg, 4 h): 0% | responders at 300 mg/kg ([2]; 4 h, 300 mg/kg, 4 h): 0% | minimal effective dose (seizures): < 100 mg/kg

COC(=O)C1C(=O)C=C(NCc2ccc(Cl)cc2)CC1C (stereo not drawn) [Compound 16]
responders at 300 mg/kg ([1]; 0.5 h, 300 mg/kg, 30 min): 100% | responders at 300 mg/kg ([1]; 4 h, 300 mg/kg, 4 h): 100% | responders at 300 mg/kg [2, 4]: 0% | responders at 300 mg/kg ([2]; 0.5 h, 300 mg/kg, 30 min): 100% | responders at 300 mg/kg ([2]; 4 h, 300 mg/kg, 4 h): 0% | scMet evaluation [2]: spurious results | minimal effective dose (seizures): > 100 mg/kg | activity compared with 12 (seizures): only a slight modification in activity

COC(=O)C1C(=O)C=C(NCc2ccc(C)cc2)CC1C (stereo not drawn) [Compound 17]
anticonvulsant activity (seizures): inactive | activity compared with 12 (seizures): only a slight modification in activity

O=C1C=C(NCc2ccccc2)CCC1 [Compound 153]
MES, animals protected/tested ([1]; 100 mg/kg, 30 min): 3/3 | MES, animals protected/tested ([1]; 100 mg/kg, 4 h): 0/3 | MES, animals protected/tested ([1]; 300 mg/kg, 30 min): 1/1 | MES, animals protected/tested ([1]; 300 mg/kg, 4 h): 1/1 | scMet, animals protected/tested ([2]; 100 mg/kg, 30 min): 0/1 | scMet, animals protected/tested ([2]; 100 mg/kg, 4 h): 0/1 | scMet, animals protected/tested ([2]; 300 mg/kg, 30 min): 0/1 | scMet, animals protected/tested ([2]; 300 mg/kg, 4 h): 0/1 | MES, animals protected/tested ([3]; 0.25 h): 0/4 | MES, animals protected/tested ([3]; 0.50 h): 2/4 | MES, animals protected/tested ([3]; 1.00 h): 3/4 | MES, animals protected/tested ([3]; 2.00 h): 3/4 | MES, animals protected/tested ([3]; 4.00 h): 1/4

O=C1C=C(NCc2ccccc2)CC(c2ccccc2)C1C(=O)NCc1ccccc1 (stereo not drawn) [Compound 11]
anticonvulsant activity (seizures): inactive

COC(=O)C1C(=O)C=C(NCc2ccc(C(=O)O)cc2)CC1C (stereo not drawn) [Compound 18]
anticonvulsant activity (seizures): inactive | activity compared with 12 (seizures): only a slight modification in activity

COC(=O)C1C(=O)C=C(Nc2cc(OC)ccc2OC)CC1C (stereo not drawn) [Compound 31, methyl 4-(2', 5'-dimethoxy)-phenylamino-6-methyl-2-oxo-cyclohex-3-en-1-oate]
responders at 100 mg/kg ([1]; 0.5 h, 100 mg/kg, 30 min): 33.3% | responders at 300 mg/kg ([1]; 0.5 h, 300 mg/kg, 30 min): 100% | responders at 100 mg/kg ([1]; 4 h, 100 mg/kg, 4 h): 0% | responders at 300 mg/kg ([1]; 4 h, 300 mg/kg, 4 h): 0% | responders at 100 mg/kg ([2]; 0.5 h, 100 mg/kg, 30 min): 0% | responders at 300 mg/kg ([2]; 0.5 h, 300 mg/kg, 30 min): 0% | responders at 100 mg/kg ([2]; 4 h, 100 mg/kg, 4 h): 0% | responders at 300 mg/kg ([2]; 4 h, 300 mg/kg, 4 h): 0% | minimal effective dose (seizures): < 100 mg/kg | anticonvulsant activity (seizures): anticonvulsant activity was observed

COC(=O)C1C(=O)C=C(NNc2ccccc2)CC1C (stereo not drawn) [Compound 25]
responders at 300 mg/kg ([1]; 0.5 h, 300 mg/kg, 30 min): 100% | responders at 300 mg/kg ([1]; 4 h, 300 mg/kg, 4 h): 0% | responders at 300 mg/kg [2, 4]: 0% | responders at 300 mg/kg ([2]; 0.5 h, 300 mg/kg, 30 min): 100% | responders at 300 mg/kg ([2]; 4 h, 300 mg/kg, 4 h): 0% | scMet evaluation [2]: spurious results | minimal effective dose (seizures): > 100 mg/kg

CCc1ccc(NC2=CC(=O)C(C(=O)OC)C(C)C2)cc1 (stereo not drawn) [Compound 26]
responders at 100 mg/kg ([1]; 0.5 h, 100 mg/kg, 30 min): 66.7% | responders at 100 mg/kg ([1]; 4 h, 100 mg/kg, 4 h): 0% | responders at 100 mg/kg ([2]; 0.5 h, 100 mg/kg, 30 min): 0% | responders at 100 mg/kg ([2]; 4 h, 100 mg/kg, 4 h): 0% | minimal effective dose (seizures): < 100 mg/kg | anticonvulsant activity (seizures): anticonvulsant activity was observed
